{"source": "patent US12092631B2", "about": "“Optical thromboelastography systems and methods” (The General Hospital Corporation, priority 2014, dated 2024)", "key": {"[1]": {"tested_on": "platelets in platelet rich plasma", "assay": "OTEG platelet aggregation/disaggregation in platelet rich plasma specimens", "format": "cell-based", "details": "FIG. 19A", "protocol": "FIG. 15B is a block-scheme representing an embodiment of the processing algorithm according to the invention for calculating the platelet aggregate size from speckle fluctuations in the plasma. Platelet rich plasma specimen is transferred into an OTEG cartridge, customized for platelet function assessment and preloaded with 20 μl Adenosine 5′-diphosphate solution (Sigma-Aldrich) (i.e. 5 μM final concentration of ADP in the […]). The cartridge is inserted in the OTEG device and speckle acquisition begins immediately. During acquisition, ADP triggers conformational changes followed by aggregation, which increase the average scattering particle radius. Since Ca′ ions are absent, coagulation cascade is not initiated and the plasma appears as a primarily viscous liquid with the viscosity of η=3 centipoises (@ 37° C.), particularly at small length scales probed by platelets. Compared to small isolated platelets, large aggregates experience a shorter range of diffusive motion and induce slower speckle fluctuations. To estimate the rate of platelet aggregation, speckle frames are processed and speckle intensity autocorrelation functions are calculated. Since plasma is an optically dilute material, the mean square displacements (MSD) values of platelet aggregates can be extracted from the g2(t) curves, using the DLS formalism, as shown in FIG. 7(B), box 2. Fitting the MSD to a linear model of MSD=6Dt at early times provides the diffusion coefficient, D, of scattering particles. The effective scattering radius is then obtained from the Stokes-Einstein relation as: α=KbT/(6πDη), where Kb is the Boltzman constant and T is the temperature (degrees Kelvin)."}, "[2]": {"tested_on": "platelets in human whole blood", "assay": "OTEG platelet aggregate size in ADP-activated human whole blood", "format": "cell-based", "details": "FIG. 8B", "protocol": "FIGS. 8A, 8B: Preliminary studies to assess platelet aggregation using OTEG methodology. FIG. 8A: Increasing aggregate radius, a, of polystyrene beads (rad=1.5 μm) caused by adding MgCl2 salt is detected by OTEG. Aggregate size was related with salt concentration, confirmed by other reports. FIG. 8B: In human whole blood, OTEG detects a 5-fold and 2.5-fold increase in aggregate size with addition of 10 and 5 μM ADP relative to blood without ADP (control). […] To enable platelet function assessment (PLT channel) via the embodiment of the OTEG device of the present invention, a new strategy was implemented to quantify platelet aggregation in whole blood. […] To estimate the rate and extent of platelet aggregation, speckle frames are processed and MSD values are calculated, as above (FIG. 5; box 3). […] The effective particle radius, a, is then obtained from the Stokes-Einstein relation (SER) (FIG. 5: box 4c), the aggregate growth from the baseline at time t=0 is plotted, and the maximum extent of platelet aggregation (RPLT) is estimated at 10 min to quantify platelet function (FIG. 12B). […] We further verified the capability to detect platelet aggregation in ADP-activated blood and monitored the change of effective aggregate radius. […] Clearly, the effective aggregate radius increase with ADP concentration and can be detected with OTEG with high sensitivity. […]"}}, "data": [{"smiles": "Nc1ncnc2c1ncn2[C@@H]1O[C@H](COP(=O)(O)OP(=O)(O)O)[C@@H](O)[C@H]1O", "note": "[ADP, Adenosine 5′-diphosphate]", "values": [{"measurement": "platelet aggregation detected by OTEG", "setting": "[1]; ADP final concentration 5 μM", "value": "rapid and complete platelet aggregation"}, {"measurement": "increase in aggregate size relative to blood without ADP (control)", "setting": "[2]; 5 μM ADP", "value": 2.5, "unit": "fold"}, {"measurement": "increase in aggregate size relative to blood without ADP (control)", "setting": "[2]; 10 μM ADP", "value": 5, "unit": "fold"}]}, {"smiles": "COC(=O)[C@H](c1ccccc1Cl)N1CCc2sccc2C1", "note": "[Clopidogrel]", "values": [{"measurement": "platelet aggregation detected by OTEG", "setting": "[1]; ADP 5 μM plus Clopidogrel 3 μM", "value": "rapid initial aggregation, followed by a rapid disaggregation"}, {"measurement": "platelet aggregation detected by OTEG", "setting": "[1]; ADP 5 μM plus Clopidogrel 30 μM", "value": "no aggregation"}]}]}
